The values below come from ChEMBL document CHEMBL5725668, “Cyclobutane containing carboxylic acid GPR120 modulators” (2018).

The test in a line: GPR120 pERK AlphaScreen SureFire Assay: The human and mouse GPR120-mediated intracellular phosphorylated ERK assays were established using CHOA12 cells stably transfected with the short form of human or mouse GPR120 receptor. Cells were cultured in growth medium consisting of F-12 media (Invitrogen Cat. #11765) with 5% Charcoal/Dextran FBS (Invitrogen Cat. #12676-029), 500 μg/mL GENETICIN® (Life Technologies Cat. #10131-027) and 250 μg/mL Zeocin (Invitrogen Cat. #R250-01). Cells were cryo preserved at a concentration of 2×10^7 cells/mL, in 90% Charcoal/Dextran FBS and 10% DMSO, and frozen in liquid nitrogen at a low passage number.For the pERK assay, 2×10^7 cells/mL cryopreserved human and mouse cells were thawed rapidly in a 37° C. water bath and added to a T-225 flask containing 50 mL growth medium. The flasks were placed in a tissue culture incubator overnight (37° C., 5% CO2). The next day, cells were harvested with trypsin (Gibco Cat. #25300-054), resuspended in serum-containing growth medium and counted using a Cellometer and volume adjusted to a concentration of 0.6×10^6 cells/mL. Cells were plated into 384-well clear bottom tissue culture plates (BD Cat. #353962) at 50 μL/well, for a density of 30,000 cells/well using a MULTIDROP® and incubated for 16-18 hours (overnight) at 37° C. with 5% CO2. The next day, cells were serum starved in 30 μL of F-12 media without any serum or antibiotics for 2 hours at 37° C.Test compounds were 3-fold, 11-point serially diluted in DMSO in a REMP assay plate (Matrix Cat. #4307) by Tecan and 5 μL was transferred into an ECHO source plate (Labcyte Cat. #LC-0200). Cells were then stimulated with 50 nL of compound dilutions using ECHO liquid handler for 7 minutes at 37° C. Compounds ranged from final assay concentrations of 33.33 μM to 0.56 nM.The media was then dumped and cells lysed with 20 μL of 1× Lysis buffer from the AlphaScreen SureFire Phospho-ERK 1/2 Kit (Perkin Elmer Cat. #6760617M). The lysis buffer was diluted 5-fold with water before use. The plate was agitated on a shaker for 10 minutes after which 2 μL was transferred into a 384-well white proxiplate (Perkin Elmer Cat. #6008289). The SureFire assay reagent mix was prepared by mixing 60 parts Reaction Buffer, 10 parts Activation Buffer, 1 part Donor Beads, 1 part Acceptor Beads (Perkin Elmer Cat. #TGRES10K). 3.5 μL/well of this reagent mix was manually added to the proxiplate with a multichannel pipettor. Plates were spun down at 1000 rpm for 2 minutes, followed by light-protected incubation at room temperature for 2 hours. The plates were read on the Alpha-technology compatible Envision multilabel plate reader using AlphaScreen protocol according to manufacturer's specifications. […]. In kind it is cell-based. (Alpha assays give light when donor and acceptor beads are brought close together.)
Regarding `O=C(O)CO[C@H]1C[C@@H](c2ccc(-c3cc(Oc4ccc(F)cc4)cc(F)c3F)cc2)C1`, the EC50 came out at 590 nM.
For `O=C(O)CO[C@H]1C[C@@H](c2ccc(-c3ccccc3Oc3ccccc3)cc2)C1` the value was 1460 nM; for `Cc1nc(C)c(-c2ccc([C@H]3C[C@@H](OCC(=O)O)C3)cc2)s1`, 3460 nM.
On to `CC(C)Oc1cc(-c2ccc([C@H]3C[C@@H](OCC(=O)O)C3)cc2)c(F)cn1`, for which the EC50 was 2070 nM.

The EC50 is the concentration giving half of the maximal effect.
